PubChem BioAssay AID504322 (Emory University Molecular Libraries Screening Center, 2011)
Activity calls are given as the source filed them. The rule behind the calls is not given here.

System: CHOP reporter cell assay, percent of control
Test: CHOP reporter inhibitor potency, dose response, cell-based (AID 504322);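 note: CHO cells carrying a CHOP reporter stimulated with tunicamycin to induce ER stress; potency is for inhibition of the stress-induced reporter signal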

SMILES	IC50
Cc1ccc(Cl)cc1NC1=C/C(=N\S(=O)(=O)c2cccs2)c2ccccc2C1=O	3.94 µM
CC(C)(C)OC(=O)NCCc1nnc(S(=O)(=O)Cc2ccc(Cl)cc2Cl)o1	> 10 µM (inactive)
COC(=O)C(Nc1ccccc1Cl)(c1cc(C)c(O)c(C)c1)C(F)(F)F (stereo not drawn)	9.66 µM (inactive)
CC(C)(C)C(=O)NC(=S)NNC(=O)C(c1ccccc1)c1ccccc1	9.04 µM (inactive)
CC(=O)OCC1O[C@@H](O[C@@H]2C[C@H]3C(C)(C)[C@H](OC(C)=O)CC[C@]3(C)[C@H]3CC[C@]45C[C@]4(CC[C@H]5[C@@H](C)C[C@@H](O)[C@H](O)C(C)(C)O)[C@@]32C)[C@H](O)[C@@H](O)[C@@H]1O (stereo partly drawn)	5.96 µM (inactive)
NC(=O)c1ccc(C(F)(F)F)n(Cc2ccc(Cl)cc2)c1=O	9.05 µM (inactive)
CCOC(=O)C1=C(C)NC(C)=C(C(=O)OCC)C1/C=C/c1ccccc1	> 10 µM (inactive)
N=C(N)c1c(O)n(C2CCCCC2)c(=O)n(C2CCCCC2)c1=O	2.77 µM
COc1ccc(NC(=O)c2cc3cccc(OC)c3oc2=Nc2ccc(C(=O)O)cc2)cc1OC	5.28 µM (inactive)
Cc1ccc2c(C)nc(Nc3nc(CSc4nc5ccccc5[nH]4)cc(=O)[nH]3)nc2c1	3.8 µM (inactive)
CC1CCN(S(=O)(=O)c2ccc3c(c2)C(=NO)c2cc(S(=O)(=O)N4CCC(C)CC4)ccc2-3)CC1	0.32 µM
CCCCCCOC(=O)c1ccccc1N	6.31 µM (inactive)
CCCCc1nc2ccccc2c(=O)n1NC(=O)c1c(O)c2ccccc2n(C)c1=O	> 10 µM (inactive)
Nc1nc(-c2ccccc2)c(N=Nc2ccccc2Cl)s1	8.65 µM (inactive)
CN1C(=O)/C(=C/c2cc(N=Nc3ccccc3)ccc2O)SC1=S	4.49 µM (inactive)
Cc1cc(Cl)n2c(nc3cc(F)c(F)cc32)c1C#N	> 10 µM (inactive)
CC1CCc2cc(F)ccc2N1C(=O)CSc1nnc2c(n1)[nH]c1ccc(F)cc12 (stereo not drawn)	9.19 µM (inactive)
Cc1cc(C)cc(OC2CCCCC2NS(=O)(=O)c2ccccc2)c1 (stereo not drawn)	> 10 µM (inactive)
O=C(Cc1ccccc1)Nc1cccc(N2C(=O)C=CC2=O)c1	9.71 µM (inactive)
O=S1(=O)C=C(Sc2nc3ccccc3s2)c2ccccc21	1.26 µM
O=C(O)c1cccc(COc2ccccc2Cl)c1	6.05 µM (inactive)
COc1cc(-c2nc3ccc4ccccc4c3c3c2CCC3)cc(OC)c1O	> 10 µM (inactive)
Cc1ccc(NC(=O)c2ccc(Nc3c([N+](=O)[O-])cc([N+](=O)[O-])cc3[N+](=O)[O-])cc2)cc1	1.81 µM
CC(C)CC(NC(=O)c1ccc(Cl)cc1)C(=O)OCC(=O)c1ccc2c(c1)NC(=O)CO2 (stereo not drawn)	1.6 µM
CC1CCC(C(C)C)C(OC(=O)COC(=O)c2cc(O)ccc2N)C1 (stereo not drawn)	4.09 µM (inactive)
O=[N+]([O-])c1cc(S(=O)(=O)C(F)(F)F)ccc1Sc1nc2ccccc2[nH]1	9.3 µM (inactive)

SMILES	IC50
O=C(NCc1nc(-c2ccc(C(F)(F)F)cc2)no1)Nc1cc(Cl)cc(Cl)c1	4.78 µM
Cc1ccc(/C=N/NC(=O)CCCOc2ccc(Cl)cc2Cl)cc1	7.92 µM (inactive)
COc1ccc(/C=C2\SC(=S)N(CCCC(=O)Nc3ccc(O)cc3)C2=O)cc1	< 0.16 µM
COc1cc(-c2nc3c(c(C)nn3-c3ccccc3)c3cc(OC)c(OC)cc23)ccc1O	9.85 µM (inactive)
COC(=O)/C(=C(/F)Sc1cc(C)c(O)c(C)c1)C(F)(F)F	9.36 µM (inactive)
C#CC(=O)N(c1ccc(OC)c(OC)c1)C(C(=O)NC1CCCC1)c1cccs1 (stereo not drawn)	5.28 µM (inactive)
CCC(C)(C)NC(=O)C(c1cccn1C)N(C(=O)Cn1nnc2ccccc21)c1ccc(F)cc1 (stereo not drawn)	> 10 µM (inactive)
OC(CNCCc1ccc(C(F)(F)F)cc1)COc1cccc2ccccc12 (stereo not drawn)	< 0.16 µM (inactive)
CN(C)CCCn1c(SCC(=O)Nc2nc(-c3cccc(Br)c3)cs2)nc2ccccc2c1=O	9.51 µM (inactive)
COc1cc(N(C(=O)Cc2cccs2)C(C(=O)NC2CCCCC2)c2ccc(C)cc2)ccc1-n1cnnn1 (stereo not drawn)	9.94 µM (inactive)
CC(C)C[C@H](NC(=O)c1[nH]cnc1C(=O)N[C@@H](C)C(=O)OC(C)(C)C)C(=O)OC(C)(C)C	3.69 µM (inactive)
Cc1ccc(NC(=S)NC(NC(=O)Cc2cccc3ccccc23)C(Cl)(Cl)Cl)cc1 (stereo not drawn)	> 10 µM (inactive)
Cc1cccc(NC2=C/C(=N/S(=O)(=O)c3cccs3)c3ccccc3C2=O)c1	4.44 µM
O=C(Nc1ccc([N+](=O)[O-])cc1)Nc1nc(-c2ccc(Cl)s2)cs1	2.28 µM
OC(CNCC(c1ccc(Cl)cc1Cl)c1c[nH]c2ccccc12)c1ccccc1 (stereo not drawn)	1.79 µM
O=C1C(C2=NC(c3ccccn3)C3C(=O)N(c4ccc(OC(F)(F)F)cc4)C(=O)C23)=C(O)c2ccccc21 (stereo not drawn)	4.57 µM
C/C=C(\C)C(=O)OC1C(C)=C2C(C1OC(=O)CCCCC)C(C)(OC(C)=O)CC(OC(=O)CCC)C1(O)C2OC(=O)C1(C)O (stereo not drawn)	< 0.16 µM
Cc1cc(C(C)(C)C)oc1C(=O)N1CCN(C(=O)c2oc(C(C)(C)C)cc2C)CC1	9.99 µM (inactive)
COC(=O)c1ccccc1NC1=C/C(=N\S(=O)(=O)c2cccs2)c2ccccc2C1=O	> 10 µM (inactive)
OCCCNc1nccc(-c2cc(Nc3cccc(Cl)c3)ncn2)n1	0.3 µM
CCc1nc2c(cnn2-c2ccc(Cl)cc2)c(=O)n1-c1ccc(OC)cc1	8.14 µM (inactive)
CCSc1nc2ccccc2n1C(=O)/C=C\c1ccc(OC)c(OC)c1	4.06 µM
CN1C2CCC1/C(=C/c1ccccn1)C(=O)/C2=C\c1ccccn1	2.04 µM
CCOC(=O)c1cnc(-n2nc(C)cc2C)nc1Nc1ccc(O)cc1	1.51 µM
CCCCc1ccc(NC(=S)Nc2ccc(Cl)c(S(=O)(=O)N(C)C)c2)cc1	> 10 µM (inactive)
COc1ccc(CCN2C(=O)c3[nH]nc(-c4ccccc4O)c3C2c2cccc(Cl)c2)cc1 (stereo not drawn)	> 10 µM (inactive)

SMILES	IC50
CCOc1cccc(C(=O)Nc2cccc(-c3nnc(-c4ccc(C)cc4)o3)c2)c1	2.62 µM
Cc1ccc(/C=N/n2c(C3CCCCC3)n[nH]c2=S)s1	5.3 µM (inactive)
Cc1ccc(/C=N/N2C(=S)SC(C)(C)C2N(O)C(=O)Nc2ccc([N+](=O)[O-])cc2)cc1 (stereo not drawn)	2.67 µM (inactive)
CCOC(=O)c1cc(-c2cccs2)nc2c1c(C)nn2-c1ccccn1	9.14 µM (inactive)
Fc1ccc(-n2nnnc2-c2cnc(-c3cccs3)nc2C(F)(F)F)cc1	6.67 µM (inactive)
Cc1ccc(CNCc2cc3c(C(C)(C)C)nn(-c4ccccc4)c3[nH]c2=O)cc1	7.24 µM (inactive)
Cn1c(=O)[nH]c(=O)c2c1nc([N+](=O)[O-])n2Cc1ccccc1	4.64 µM
CCOc1ccc(-c2cc(CCCC(=O)NCc3ccc(C)cc3)no2)cc1	5.91 µM (inactive)
O=C1CC(c2ccccc2)CC(O)=C1C=Nc1cccc(Cl)c1 (stereo not drawn)	5.16 µM
N#CC1=C(N)N2C(=C(C#N)C1c1ccc(Br)cc1)Nc1ccccc12 (stereo not drawn)	> 10 µM (inactive)
CC1C/C(=C/c2ccccn2)C(=O)/C(=C/c2ccccn2)C1 (stereo not drawn)	2.49 µM
CC(C)c1ccc(NC(=O)CSc2nc(-c3ccccc3F)nc3nc[nH]c23)cc1	9.99 µM (inactive)
CC(/C=N/n1c(C2CCCCC2)n[nH]c1=S)=C\c1ccccc1	5.88 µM (inactive)
CC(C)C[C@H](NC(=O)OC(C)(C)C)C(=O)N/N=C/C1=Cc2ccccc2OC1C (stereo partly drawn)	2.31 µM
CCCC(=O)N1CCN(c2ccc(NC(=O)c3cc4ccccc4o3)cc2Cl)CC1	5.4 µM (inactive)
COc1ccc(C2CC(c3c(-c4ccccc4)c4cc(Cl)ccc4[nH]c3=O)=NN2S(C)(=O)=O)cc1OC (stereo not drawn)	8.04 µM (inactive)
CCNC(=O)c1c(NC(=O)c2cc(-c3cc(C)ccc3O)n[nH]2)sc2c1CCCC2	9.58 µM (inactive)
COc1cccc(C(=O)C(C#N)=C(SC)SC)c1	> 10 µM (inactive)
Cc1sc2ncnc(N3CCCCC3C)c2c1C (stereo not drawn)	> 10 µM (inactive)
O=C(CCl)N(Cc1cccc([N+](=O)[O-])c1)c1cccc(Cl)c1	9.39 µM (inactive)
CC(C)Cn1c(=O)c2ccccc2n2c(SCC(=O)N3c4ccccc4CC3C)nnc12 (stereo not drawn)	> 10 µM (inactive)
N=c1n(Cc2ccccc2)c2ccccc2n1CC(O)COc1ccc(Cl)cc1Cl (stereo not drawn)	6.92 µM (inactive)
O=C1C(Nc2ccccc2)=C/C(=N/S(=O)(=O)c2cccs2)c2ccccc21	2.6 µM
COc1ccc(-c2nc(-c3ccc(NC(=O)c4ccc(Br)o4)cc3)no2)cc1OC	> 10 µM (inactive)
COc1cc(/C=C2\COC/C(=C\c3cc(OC)c(OC)c(OC)c3)C2=O)cc(OC)c1OC	3.46 µM
Cc1ccc(NC(=O)C(=O)NCC2OCCc3ccccc32)cc1 (stereo not drawn)	8.99 µM (inactive)
